“Also recorded” adds a separate entry of the source.
Assays:
HeLa cells [1] = assay: Immunocytochemistry co-localization analysis of ER markers (calnexin, KDEL) with p62 and LC3; format: cell-based, human; details: tannic acid 30 μM 24 h, HCQ 10 μM 24 h
Method: FIG. 2C is a fluorescence image illustrating the co-localization analysis results of p62 and calnexin in HeLa cells treated with HCQ (10 μM, 24 h), tannic acid (30 μM, 24 h) or both (scale bar, 10 μm),
FIG. 2E is a fluorescence image illustrating the co-localization analysis results of KDEL and LC3 in HeLa cells treated with HCQ (10 μM, 24 h), tannic acid (30 μM, 24 h) or both (scale bar, 10 μm),
FIG. 5C is a fluorescence image illustrating the co-localization analysis results of calnexin, p62 and LC3-GFP puncta structures in HeLa cells transfected with LC3-GFP and treated with YTK1105 (2.5 μM, 9 h) (scale bar, 10 μm),
FIG. 11E illustrates the co-localization analysis results of p62, KDEL and LC3-GFP in HeLa cells transiently transfected with LC3-GFP and treated with YTK1105 (2.5 μM, 5 h) (scale bar, 10 μm), […]
To observe cellular localization of proteins, cells were cultured on cover slips coated with poly-L-lysine (Sigma). […] Confocal images were taken by a laser scanning confocal microscope 510 Meta (Zeiss) and analyzed by Zeiss LSM Image Browser (ver. 4.2.0.121).
Quantification results are expressed as the mean+/−S.D. value of three independent test results. […] The P-values were determined using ANOVA with two-tailed student's t-test (degree of freedom=n−1) or Prism 6 software (GraphPad). The statistical significance was determined as values of p<0.05 (***p<0.001; **p<0.01; *p<0.05).

HeLa cells [2] = assay: ER expansion visualization by KDEL immunostaining; format: cell-based, human; details: tannic acid 30 μM 24 h with YTK1105 2.5 μM 5 h or rapamycin 2 μM 18 h, FIGS. 5H, 5I
Method: FIG. 5H illustrates the immunostaining results of KDEL signals in HeLa cells treated with or without tannic acid (30 μM, 24 h) and with YTK1105 (2.5 μM, 5 h) or rapamycin (2 μM, 18 h) (scale bar, 10 μm),
To observe cellular localization of proteins, cells were cultured on cover slips coated with poly-L-lysine (Sigma). The cells were fixed with 4% paraformaldehyde in PBS (pH 7.4) for 15 min at room temperature and washed three times with PBS for 5 min. The cells were permeabilized with 0.5% Triton X-100 in PBS solution for 15 min and washed three times with PBS for 5 min. The cells were blocked with 2% BSA in PBS solution for 1 h at room temperature. After blocking, the cells were incubated overnight at 4° C. with a primary antibody diluted in 2% BSA/PBS solution. […] Confocal images were taken by a laser scanning confocal microscope 510 Meta (Zeiss) and analyzed by Zeiss LSM Image Browser (ver. 4.2.0.121).
Using confocal microscopy of cells analyzed by immunocytochemistry, ER expansion was visualized by considered when KDEL- or calnexin-labelled ER occupied more than 80% of cell area. Furthermore, the ER area was calculated by ImageJ (NIH, Bethesda, v1.52) and the background threshold was manually defined and set for all images. The ER area was calculated and marked from the total cell area as a fraction after borders of each cell were set.

TRIM13-p62 complex = target: T1, TRIM13-p62 complex (Homo sapiens, UniProt Q13501); assay: Co-IP with autophagy flux analysis using TRIM13 pulldown; format: cell-based; details: HEK293T p62-myc + TRIM13-flag
T1 construct: PCR amplification of a full-length human p62 cDNA fragment; expressed in transfected cells; host or cells: HEK293T
Method: FIG. 4I illustrates the Co-IP assay results in HEK293T cells treated with HCQ (10 μM, 24 h), tannic acid (30 μM, 24 h), or both, and co-transfected (24 h) with p62-myc and TRIM13-flag,
FIG. 5K illustrates the Co-IP assay results in HEK293T cells co-transfected with p62-myc and TRIM13-flag (24 h) or transfected with negative control empty vector (EV) and treated with HCQ (10 μM, 24 h), YOK1104 (2.5 μM, 4 h), or both, and
To test protein interaction, co-immunoprecipitation assays were performed. For exogenous co-IP, HEK293T cells were transfected with recombinant p62, BiP, TRIM13, reticulophagy regulator 1 (FAM134B), reticulon 3 (RTN3) or ATZ (Z variant E342K) using Lipofectamine 2000. The cell pellets were scraped and pelleted by centrifugation, resuspended and lysed in an immunoprecipitation buffer (IP buffer) [50 mM Tris-HCl pH 7.5, 150 mM NaCl, 0.5% Triton X-100, 1 mM EDTA, 1 mM phenylmethylsulfonyl fluoride (PMSF; Roche) and protease inhibitor cocktail (Sigma)] on a rotor at 4° C. for 30 min. Next, the supernatant and remaining pellets were passed through a 26-gauge 1 mL syringe 15 times and centrifuged at 13,000 g at 4° C. and collected for the supernatant, to which normal mouse IgG (Santa Cruz) and Protein A/G-Plus agarose beads (Santa Cruz) were added to preclear the lysate on a rotor at 4° C. overnight. The cell lysate was then incubated with M2 FLAG-affinity Gel agarose beads (Sigma) on a rotor at 4° C. for 3 h. The gel beads were washed four times with IP buffer, resuspended in 2× Laemmli Sample Buffer, separated by SDS-PAGE and analyzed by immunoblotting with specified antibodies.

TRIM13 [3] = assay: In vivo oligomerization assay of TRIM13-flag (non-reducing SDS-PAGE); format: cell-based, human
Method: FIG. 4H illustrates the in vivo oligomerization assay results of TRIM13-flag in HEK293T cells treated with HCQ (10 μM, 24 h), tannic acid (30 μM, 24 h), or both,
FIG. 5L illustrates the In vivo oligomerization assay results of TRIM13-flag in HEK293T cells treated with MG132 (2 μM, 24 h) and with or without YOK1104 (2.5 μM, 4 h).
HEK293T cells were transfected with TRIM13-flag using Lipofectamine 2000 and treated with hydroxychloroquine (Sigma) for 24 h. To lyse the cells, the cells were subjected to a cycle of freezing/thawing and centrifuged at 13,000 g for 10 min after 30 min incubation on ice for supernatant collection. Protein concentration was measured using the Pierce BCA Protein Assay Kit (Thermo Fisher Scientific). Next, a non-reducing 4×LDS sample buffer was added to the sample lysate and followed by boiling at 100° C. for 10 min. The samples were loaded on a 3% stacking and 8% separating SDS-PAGE. Immunoblotting assays were performed using an anti-Flag antibody (Sigma) to visualize the oligomeric complexes of TRIM13.

TRIM13 [4] = assay: Immunoblotting of ER protein in tannic acid-treated cells; format: cell-based, human; details: HeLa, tannic acid 30 μM 24 h; FIG. 8E
Method: FIG. 8E illustrates the immunoblotting results of ER protein in HeLa cells treated with tannic acid (30 μM, 24 h),
(§1) Cell pellets were washed with phosphate-buffered saline (PBS) and lysed in an SDS-based sample buffer (277.8 mM Tris-HCl, pH 6.8, 4.4% LDS, 44.4% (v/v) glycerol) with beta-mercaptoethanol. Alternatively, cell pellets or protein supernatants were lysed in a 5× Laemmli sample buffer (SDS-based sample buffer). Using SDS-PAGE, whole cell lysates were separated and transferred onto polyvinylidene difluoride membranes at 100 V for 2 h at 4° C. Subsequently, the membrane was blocked with 4% skim milk in PBS solution for 30 min at room temperature and incubated overnight with primary antibodies (see Reference Example 4), followed by incubation with host-specific HRP-conjugated secondary antibodies (Jackson laboratory) (1:10000 dilution). For signal detection, a mixture of ECL solution (Thermo Fisher Scientific) was applied onto the membrane and captured using X-ray films.

HEK293T cells = assay: Transmission electron microscopy of treated cells; format: cell-based, human; details: 2.5 μM, 6 h vs DMSO, FIG. 5E
Method: FIG. 5E is a transmission electron microscopy image of HEK293T cells treated with YOK1104 (2.5 μM, 6 h) or DMSO (control), where arrows indicate autolysosomes and asterisks indicate ER fragments inside autolysosomes (scale bars, 500 nm (1st & 2nd column), 200 nm (3rd column)),
For conventional transmission electron microscopy, HEK293T cells were treated with 2.5 μM YOK1104 for 6 h, scraped from culture dish and pelleted by centrifugation. The pellets were resuspended in 2.5% glutaraldeyhyde in 0.1 M sodium cacodylate buffer (pH 7.4) (Electron Microscopy Sciences) for overnight at 4° C. The fixative was replaced by a cacodylate buffer for the last 6 h, after which the cells were embedded in Epon resin. Subsequently, the cells were cut into 55-nm sections and stained with uranyl acetate and lead citrate using the Reichert Ultracut S Ultramicrotome (Leica Microsystems) and FEI Vitrobot Mark IV (Thermo Scientific), respectively. The cell sections were observed using the 200 kV transmission electron microscope FEI Tecnai G2-F20 (Thermo Scientific).

BiP, PDI, TRIM13 = assay: Immunoblotting of ER proteins under proteotoxic ER stress; format: cell-based, human; details: HeLa, MG132 2 μM 24 h, YOK1104 2.5 μM 4 h; FIG. 5F
Method: FIG. 5F illustrates the immunoblotting analysis results of HeLa cells treated with MG132 (2 μM, 24 h), YOK1104 (2.5 μM, 4 h), or both,
as §1

TRIM13 [5] = assay: Autophagy flux assay of TRIM13-flag with bafilomycin A1; format: cell-based, human; details: HeLa TRIM13-flag, 2.5 μM 4 h, with or without bafilomycin A1 200 nM 6 h; FIG. 11M
Method: FIG. 11M illustrates the Western blotting results of HeLa cells transfected with TRIM13-flag or negative control empty vector (EV), treated with YOK1104 (2.5 μM, 4 h), and treated with or without bafilomycin A1 (200 nM, 6 h),
as §1

HeLa cells [6] = assay: Western blotting of ER stress and apoptosis in tannic acid-treated cells; format: cell-based, human; details: tannic acid 30 μM 24 h, YTK1105 5 μM 9 h, HCQ 10 μM 24 h, FIG. 5G
Method: FIG. 5G illustrates the Western blotting analysis results of HeLa cells treated with HCQ (10 μM, 24 h), YTK1105 (5 μM, 9 h), or both in the presence or absence of tannic acid (30 μM, 24 h),
as §1

With O=C(OC[C@H]1O[C@@H](OC(=O)c2cc(O)c(O)c(OC(=O)c3cc(O)c(O)c(O)c3)c2)[C@H](OC(=O)c2cc(O)c(O)c(OC(=O)c3cc(O)c(O)c(O)c3)c2)[C@@H](OC(=O)c2cc(O)c(O)c(OC(=O)c3cc(O)c(O)c(O)c3)c2)[C@@H]1OC(=O)c1cc(O)c(O)c(OC(=O)c2cc(O)c(O)c(O)c2)c1)c1cc(O)c(O)c(OC(=O)c2cc(O)c(O)c(O)c2)c1 [tannic acid] the “localization of p62 puncta to calnexin signals (targeting of p62 to the ER)” value (HeLa cells [1]; FIGS. 2C, 2D) was “p62 punctate signals were delocalized from calnexin signals”, the “autophagic targeting of KDEL+ proteins (KDEL-LC3 co-localization)” value (HeLa cells [1]; FIGS. 2E, 2F) was “abolished” and the “ER morphology (swelling), KDEL signals” value (HeLa cells [2]) was “the ER spontaneously swelled into abnormal morphology”. For the same compound, the “turnover of TRIM13 and its complex with p62” value (TRIM13-p62 complex; tannic acid 30 μM 24 h, HCQ 10 μM 24 h, FIG. 4I) was “became metabolically stabilized”, the “binding of p62 to TRIM13” value (TRIM13-p62 complex; tannic acid 30 μM 24 h, FIG. 4I) was “p62 normally bound to TRIM13” and the “oligomeric status of TRIM13” value (TRIM13 [3]; HEK293T TRIM13-flag, tannic acid 30 μM 24 h, HCQ 10 μM 24 h, FIGS. 4H, 9L) was “TRIM13 lost its oligomeric status, leading to the uncontrolled formation of aggregates”. The “TRIM13 protein level (autophagic degradation)” value (TRIM13 [4]) was “stabilized”.
CC(C)NC[C@@H](O)COc1ccc(OCc2ccccc2)c(OCc2ccccc2)c1 [YOK1104, (R)-1-(3,4-bis(benzyloxy)phenoxy)-3-(isopropylamino)propan-2-ol] was tested, and the “delivery of ER compartments to autolysosomes; autophagosomes and autolysosomes by transmission electron microscopy” value (HEK293T cells) was “readily exhibited an abundance of autophagosomes and autolysosomes; also recorded: displayed the accumulation of ER fragments within their interior”, the “degradation of BiP, PDI and TRIM13 following up-modulation by proteotoxic ER stress” value (BiP, PDI, TRIM13) was “readily facilitated the degradation of BiP and PDI as well as TRIM13” and the “autophagic degradation of TRIM13” value (TRIM13 [5]) was “drove TRIM13 to autophagic degradation”. For the same compound, the “autophagic degradation of the TRIM13-p62 complex” value (TRIM13-p62 complex; YOK1104 2.5 μM 4 h, HCQ 10 μM 24 h, FIG. 5K) was “enhanced autophagic degradation of the TRIM13-p62 complex” and the “degradation of oligomeric vs monomeric species of TRIM13” value (TRIM13 [3]; HEK293T, MG132 2 μM 24 h, YOK1104 2.5 μM 4 h, FIG. 5L) was “selectively induced the degradation of oligomeric species but not that of monomeric species of TRIM13”.
For Cl.OCCNCc1ccc(OCc2ccccc2)c(OCc2ccccc2)c1 [YTK1105, 2-((3,4-bis(benzyloxy)benzyl)amino)ethan-1-ol hydrochloride], the “rescue from ER stress and apoptosis” value (HeLa cells [6]) was “rescued tannic acid-treated cells from ER stress and apoptosis in an autophagy-dependent manner” and the “ER morphology (swelling), KDEL signals” value (HeLa cells [2]) was “readily restored”.

— US20220323379A1, “P62 LIGAND COMPOUND AND ER-PHAGY-PROMOTING USE THEREOF” (PROTECH, INC., priority 2019, published 2022)
